Test results: patent US8629144B2, “Polymorphic and hydrate forms, salts and process for preparing 6-{difluoro[6-(1-methyl-1H-pyrazol-4-yl)[1,2,4]triazolo[4,3-b]pyridazin-3-yl]methyl}quinoline” (Janssen Pharmaceutica NV, priority 2007, dated 2014)
Values joined by “and” are separate entries in the source; they are usually repeats but may differ in a detail not shown here. Identical values can stand only once. Counter-ions that a name gives are not always drawn.

Columns and labels:
c-Met kinase = molecular target: T1, c-Met kinase (Homo sapiens, UniProt P08581); test: c-Met autophosphorylation assay with radioactive ATP; type: biochemical; details: [33P]-γ-ATP, 60 min room temperature, read-out: IC50 for c-Met kinase inhibition
T1 construct: His-6 (N); purchased Panvera Lot 40047X; host or cells: Sf9 insect cells (baculovirus), for the His6-MetKin construct scaled up at Pan Vera
T1 sequence (P08581 956-1390 limits assumed): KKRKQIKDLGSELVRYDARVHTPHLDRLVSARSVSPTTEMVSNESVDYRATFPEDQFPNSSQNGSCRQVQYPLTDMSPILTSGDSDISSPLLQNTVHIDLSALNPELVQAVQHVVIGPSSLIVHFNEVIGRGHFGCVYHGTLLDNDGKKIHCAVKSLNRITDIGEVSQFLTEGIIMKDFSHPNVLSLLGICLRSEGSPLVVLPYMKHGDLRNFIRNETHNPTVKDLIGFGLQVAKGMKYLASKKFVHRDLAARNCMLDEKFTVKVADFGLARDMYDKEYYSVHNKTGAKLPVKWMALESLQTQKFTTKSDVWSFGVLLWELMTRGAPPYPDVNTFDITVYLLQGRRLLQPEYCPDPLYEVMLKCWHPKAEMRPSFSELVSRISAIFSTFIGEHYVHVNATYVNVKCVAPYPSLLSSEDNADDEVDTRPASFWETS
Method: The present autophosphorylation assay uses radioactive ATP to measure the incorporation of phosphate upon c-Met autophosphorylation. The assay procedure for screening is as follows.
c-Met enzyme (purchased from Panvera, Lot 40047X, 2.4 mg/ml); “Assay buffer” (13.3 mM MOPS pH 7; 0.33 mM EDTA); “Enzyme buffer” (20 mM MOPS pH 7; 1 mM EDTA; 0.01% Brij 35; 5% glycerol; 0.1% beta mercapto-EtOH); 100 mM MgAc; 3% phosphoric acid; 75 mM phosphoric acid; 1 mM ATP-stock; [^33P]-γ-ATP (NEN, NEG602H); round-bottom 96-well plates (Corning, 3799); Filtermat P30-filters (Perkin Elmer); “Enzyme mix” (698.80 μl of Enzyme buffer as above+1.17 μl of c-Met enzyme as above); “Substrate mix” (946.00 μl of 100 mM MgAc+50.00 μl ATP (0.1 mM)+4.00 μl [^33P]-γ-ATP as above).
• 1. Distribute 15 μl assay buffer per well. • 2. Add 0.5 μl dilution of tested c-Met inhibitor (e.g., compound (I) or its forms or salts) in DMSO. • 3. Add 5 μl Enzyme mix per well (control: Enzyme buffer in blanc). • 4. Add 5 μl Substrate mix per well. • 5. Incubate at room temperature for 60 min. • 6. Stop reaction with 3% phosphoric acid, 5 μl per well • 7. Shake plate • 8. Spot 5 μl from a well to filtermat P30. • 9. […] Expose the filter to phosphor storage cassette overnight on low energy phosphor storage plate, and detect and quantify the signal using a suitable phosphorimager (herein, Typhoon) Results

S114 tumors = test: S114 tumor model; type: in vivo, athymic nude mice; details: 100 mg/kg p.o. q.d., four consecutive days
Method: Female athymic nude mice (CD-1, nu/nu, 9-10 weeks old) were obtained from Charles River Laboratories (Wilmington, Mass.) and were maintained according to NIH standards. All mice were group housed (5 mice/cage) under clean-room conditions in sterile micro-isolator cages on a 12-hour light/dark cycle in a room maintained at 21-22° C. and 40-50% humidity. Mice were fed irradiated standard rodent diet and water ad libitum. All animals were housed in a Laboratory Animal Medicine facility that is fully accredited by the American Association for Assessment and Accreditation of Laboratory Animal Care (AAALAC). All procedures involving animals were conducted in compliance with the NIH Guide for the Care and Use of Laboratory Animals and all protocols were approved by an Internal Animal Care and Use Committee (IACUC).
The murine NIH 3T3 derived cell line S114, which has been engineered to over-express both […] (HGF) and the human c-Met receptor, was propagated in DMEM media (Life Technologies, Bethesda, Md.). Immediately prior to injection, cells were washed counted and resuspended in PBS. Female athymic nude mice weighing no less than 20-21 grams were inoculated subcutaneously in the left inguinal region of the thigh with 5×10^6 cells in a delivery volume of 0.1 mL. Tumors were allowed to grow to for five days.
Mice were dosed orally at 100 mg/kg compound in 20% HPBCD or with vehicle (20% HPBCD, control group). Dosing was continued for 4 consecutive days. Compounds of the invention were prepared fresh daily as a clear solution in 20% HPBCD and administered as described above. Body weight was measured at the end of the study and a loss of body weight >10% was used as an indication of lack of compound tolerability. Unacceptable toxicity was defined as body weight loss >20% during the study. Mice were closely examined daily at each dose for overt clinical signs of adverse, drug-related side effects.
On the day of study termination, a final tumor volume and final body weight were obtained on each animal. […]

U87MG tumors = test: U87MG glioblastoma tumour xenograft model; type: in vivo, athymic nude mice; details: for Decrease of mean tumor volume: Day 12, p<0.01
Method: The U87MG glioblastoma cell line (Piedmont Research Center LLC) expresses the c-Met receptor and responds to […] (HGF). This study investigated whether treatment with an inhibitor of c-Met is efficacious against the U87MG glioblastoma tumor xenograft model. This study utilized a tumor growth inhibition (TGI) assay to test per os (p.o.) compound monotherapy in groups of fifteen nude mice. A control group was treated with vehicle, 20% Hydroxypropyl Beta-Cyclodextrin (HPBCD). All treatments began on Day 1 (D1) in mice bearing established subcutaneous (s.c.) U87MG tumors.
Female athymic nude mice (Harlan) were 10-11 weeks old with a BW range of 18.1-25.0 g on D1 of the study. The animals were fed ad libitum water (reverse osmosis, 1 ppm Cl) and NIH 31 Modified and Irradiated Lab Diet® consisting of 18.0% crude protein, 5.0% crude fat, and 5.0% crude fiber. The mice were housed on irradiated ALPHA-Dri® bed-o-cobs® Laboratory Animal Bedding in static microisolators on a 12-hour light cycle at 21-22° C. (70-72° F.) and 40-60% humidity. All animals were housed in a Laboratory Animal Medicine facility that is fully accredited by the American Association for Assessment and Accreditation of Laboratory Animal Care (AAALAC). All procedures involving animals were conducted in compliance with the NIH Guide for the Care and Use of Laboratory Animals and all protocols were approved by an Internal Animal Care and Use Committee (IACUC).
Xenografts were initiated from U87MG human glioblastoma tumor fragments maintained by serial transplantation in athymic nude mice. Each test mouse received a subcutaneous U87MG tumor fragment (1 mm^3) implanted in the right flank, and the growth of tumors was monitored as the average size approached 200 mm^3. Twelve days later, on Day 1 of the study, the animals were sorted into 4 groups (n=12-15 mice/group) with individual tumor volumes ranging from 172-352 mm^3 and group mean tumor volumes of 216 mm^3. Tumor volume was calculated using the formula: […]
Dosing solutions of compounds of the present invention were prepared fresh weekly in a vehicle consisting of 20% Hydroxypropyl Beta-Cyclodextrin (HPBCD) in water. In all groups, the dosing volume of 0.2 mL/20-g mouse was scaled to the body weight of each animal. Doses were given to allow for the HCl salt form of the compound.
TGI was calculated from the difference between the median tumor volumes of vehicle-treated and drug-treated mice, expressed as a percentage of the median tumor volume of the vehicle-treated control group, by the following relation:
The MTV (n) is defined as the median tumor volume (MTV) for the number of animals, n, remaining in the study on that day.
Animals were weighed daily for the first five days of the study and then twice weekly. The mice were examined frequently for overt signs of any adverse, drug-related side effects, and clinical signs of toxicity were recorded when observed. Acceptable toxicity is defined as a group mean body-weight (BW) loss of less than 20% during the study, and not more than one treatment-related (TR) death among ten animals. A death is classified as TR if it is attributable to treatment side effects as evidenced by clinical signs and/or necropsy, or due to unknown causes during the dosing period or within 10 days of the last dose. A death is classified as non treatment-related (NTR) if there is no evidence that the death was related to drug side effects. […]

[1] = Water adsorption (hygroscopicity) of salts of compound (I); type: physicochemical
Method: Free base of compound (I) (3 g; 7.95 mmol) was dissolved in absolute ethanol (40 mL) and heated to 78° C. An acid (HCl 6M in 2-propanol, 2.0 ml (12 mmol); HBr 48% in water, 0.98 mL (8.75 mmol); methane sulphonic acid, 917 mg (9.54 mmol); ethane sulphonic acid, 1.05 g (9.54 mmol) or p-toluene sulphonic acid monohydrate (1.66 g (8.75 mmol)) was added to the hot reaction mixture. The reaction mixture was allowed to cool to room temperature. The resulting precipitate was filtered off, washed with ethanol and dried under vacuum at 60° C.
The obtained solids were analysed by acid titration, Karl-Fisher titration and HPLC. A physical characterisation was performed (DSC, TGA, XRD and IR, DVS).

[2] = Absorption and plasma kinetics after oral administration of salts to rat; details: male, SD, rat, plasma, po
Method: Five male SD rats (225±11 g) were used per salt form. From each rat a complete plasma concentration time profile was obtained. Tap water and food were available ad libitum. The test involved salts of compound (I) with HBr, HCl, methanesulphonic acid (mesylate), ethanesulphonic acid (esylate) or p-toluenesulphonic acid (tosylate). The individual salts were dispersed in a 0.5% methocel suspension to a final concentration of 1 mg base eq./ml. The formulations were stored at room temperature.
Administration was oral by gastric intubation: 10 ml/kg to obtain a dose of 10 mg base eq./kg.
Blood samples were collected 30 min, 1, 2, 4, 7 and 24 h after dose administration.
Blood was collected by multiple sampling from a tail vein into Multivette® 600 K3E tubes (Sarstedt). Samples were placed immediately on melting ice and plasma was obtained following centrifugation at 4° C. for 10 minutes at approximately 1900×g. All samples were shielded from daylight and stored at ≦−18° C. prior to analysis.
A limited pharmacokinetic analysis was performed using WinNonlin™ Professional (Version 5.1). A non-compartmental analysis using the lin/log trapezoidal rule with lin/log interpolation was used for all data.

[3] = Water solubility of salts of compound (I); type: physicochemical; details: 24 hours at 20° C.
Method: An excess of different salts of compound (I) was agitated with water during 24 hours at 20° C. Following filtration, the concentration of compound (I) in the solution was determined by UV spectrometry.

For Cn1cc(-c2ccc3nnc(C(F)(F)c4ccc5ncccc5c4)n3n2)cn1 [Compound (I), 6-{difluoro[6-(1-methyl-1H-pyrazol-4-yl)[1,2,4]triazolo[4,3-b]pyridazin-3-yl]methyl}quinoline], which IC50 (c-Met kinase) is on record?
The IC50 was ~0.00701 µM.

What about the “S114 tumor regression, mice responding” value (S114 tumors) of the same compound?
The value was “regressed in all five mice”.

And the “Mice with tumors regressed to non-palpable, non-detectable” value (S114 tumors; end of study)?
The value was “three of the five mice”.

And the Final tumour weights (S114 tumors; individual mice)?
The Final tumour weights was 0.017 g (2×) and no tumour (3×).

And the “Decrease of mean tumor volume” value (U87MG tumors; 25 mg/kg p.o. (q.d. day 1, b.i.d. to day 12))?
The value was 94%.

And the “Decrease of mean tumor volume” value (U87MG tumors; 50 mg/kg p.o. (b.i.d. 7 days, 24-hr pause, q.d. to day 12))?
The value was 96%.

And the “Decrease of mean tumor volume” value (U87MG tumors; 75 mg/kg p.o. (b.i.d. 7 days, 24-hr pause, q.d. to day 12))?
Its value is 97%.

What about the “Tumor growth inhibition of U87MG tumors” value (U87MG tumors; p.o. 25, 50 and 75 mg/kg, all doses, p<0.01) of the same compound?
Its value is “statistically significant”.

What about the Tumor regression (U87MG tumors; p.o. 25, 50 and 75 mg/kg, all three doses) of the same compound?
Its Tumor regression is “Tumor regression was also observed”.

For Cn1cc(-c2ccc3nnc(C(F)(F)c4ccc5ncccc5c4)n3n2)cn1 [HCl salt], which IC50 (c-Met kinase) is on record?
The IC50 was ~0.0132 µM.

What about the Hygroscopicity [1] of the same compound?
Its Hygroscopicity is “hygroscopic”.

What about the Water adsorbed ([1]; dried 1 h at 25° C. under dry nitrogen flow, depending on the atmospheric humidity) of the same compound?
The Water adsorbed was “up to 11.4%”.

What about the concentration at 0.5 h ([2]; 10 mg base eq./kg) of the same compound?
The concentration at 0.5 h was 3090 ± 235 ng/mL.

What about the concentration at 1 h ([2]; 10 mg base eq./kg) of the same compound?
The concentration at 1 h was 4210 ± 685 ng/mL.

What about the concentration at 2 h ([2]; 10 mg base eq./kg) of the same compound?
Its concentration at 2 h is 4290 ± 803 ng/mL.

What about the concentration at 4 h ([2]; 10 mg base eq./kg) of the same compound?
Its concentration at 4 h is 2710 ± 706 ng/mL.

What about the concentration at 7 h ([2]; 10 mg base eq./kg) of the same compound?
Its concentration at 7 h is 1940 ± 702 ng/mL.

What about the concentration at 24 h ([2]; 10 mg base eq./kg) of the same compound?
Its concentration at 24 h is 56.1 ± 16.6 ng/mL.

And the AUC0-inf ([2]; 10 mg/kg)?
Its AUC0-inf is 29900 ± 7260 ng·h/mL.

And the AUC(0-t) ([2]; 10 mg/kg)?
The AUC(0-t) was 29600 ± 7220 ng·h/mL.

What about the Cmax ([2]; 10 mg/kg) of the same compound?
Its Cmax is 4430 ± 683 ng/mL.

And the Tmax ([2]; 10 mg/kg)?
Its Tmax is 1.6 ± 0.5 h.

What about the half-life ([2]; 10 mg/kg) of the same compound?
The half-life was 3.5 ± 0.3 h.

What about the “Measured pH” value ([3]; saturated solution in water) of the same compound?
The value was “pH = 1.8”.

And the solubility thermodynamic at 24 h ([3]; water, UV spectrometry)?
Its solubility thermodynamic at 24 h is 380 µg/mL.
